From PubChem BioAssay (NCI)
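Assay format: 96-well plates, 48-hour exposure. GI50 = concentration required for 50% inhibition of growth. TGI denotes the concentration required for complete inhibition of growth.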

Experiments:
Test in all cases: NCI tumour cell line growth inhibition, 48 h
[1] = system: KM12 colon
[2] = system: DU-145 prostate
[3] = system: RPMI-8226 leukemia
[4] = system: UACC-257 melanoma
[5] = system: MALME-3M melanoma
[6] = system: COLO 205 colon
[7] = system: RXF 393 renal
[8] = system: MDA-MB-231 breast
[9] = system: SK-MEL-5 melanoma
[10] = system: MDA-N

SMILES	GI50 [1]	TGI [1]	GI50 [2]	TGI [2]	GI50 [3]	TGI [3]	GI50 [4]	TGI [4]	GI50 [5]	TGI [5]	GI50 [6]	TGI [6]	GI50 [7]	TGI [7]	GI50 [8]	TGI [8]	GI50 [9]	TGI [9]	TGI [10]
COc1cc(N(CCCl)CCCl)ccc1/C=N\NC(=O)c1cccnc1	33.6 µM	> 100 µM	24.6 µM	> 100 µM	30.9 µM	> 100 µM	15.3 µM	63.3 µM	38.3 µM	> 100 µM	13.5 µM	> 100 µM	24.1 µM	78.5 µM	33.8 µM	> 100 µM	16.4 µM	36 µM	–
COc1ccc(-c2cc(=O)c3cc(O)ccc3o2)c(OC)c1OC	–	87.7 µM	–	–	–	32.8 µM	–	> 100 µM	–	> 100 µM	–	> 100 µM	–	89.4 µM	–	–	–	–	–
O=C(CC(=O)N1N=C(N(c2ccccc2)c2ccccc2)CC1c1ccccc1)Nc1cccc(Cl)c1 (stereo not given)	–	> 100 µM	–	> 100 µM	–	> 100 µM	–	> 100 µM	–	–	–	> 100 µM	–	> 100 µM	–	> 100 µM	–	> 100 µM	–
CN(C)NC1=NS(=O)(=O)c2cc3c(=O)n(C)[nH]c3cc2S1	–	> 10 µM	–	> 10 µM	–	> 10 µM	–	> 10 µM	–	> 10 µM	–	> 10 µM	–	> 10 µM	–	–	–	> 10 µM	> 10 µM
NC(CSCSCC(N)C(=O)O)C(=O)O (stereo not given)	–	> 104 µM	–	–	–	> 225 µM	–	> 225 µM	–	> 225 µM	–	> 225 µM	–	> 225 µM	–	–	–	> 225 µM	–
CC(C)CC1N=C(OCc2ccccc2)OC1=O (stereo not given)	–	> 100 µM	–	> 100 µM	–	> 100 µM	–	> 100 µM	–	> 100 µM	–	–	–	> 100 µM	–	> 100 µM	–	> 100 µM	> 100 µM
Cn1c(=O)cc(Nc2ccc(N)cc2)[nH]c1=O	–	> 100 µM	–	–	–	> 100 µM	–	> 100 µM	–	> 100 µM	–	> 100 µM	–	> 100 µM	–	> 100 µM	–	> 100 µM	> 100 µM
C#CCNC(=O)CC[C@@H](C)[C@H]1CC[C@H]2[C@@H]3CC[C@@H]4CC(=O)CC[C@]4(C)[C@H]3CC[C@]12C	18.8 µM	70.2 µM	14.8 µM	35.1 µM	1.82 µM	19.1 µM	13.2 µM	42.3 µM	14 µM	31.7 µM	15.7 µM	32.5 µM	14 µM	31.7 µM	16.5 µM	38.9 µM	8.71 µM	23.2 µM	–
CCCCCCc1cc2cc(C(=O)Nc3cccc(F)c3)c(=N)oc2cc1O	–	8.3 µM	–	12.2 µM	–	9.4 µM	–	11.9 µM	–	8.75 µM	–	34.7 µM	–	–	–	–	–	2.85 µM	11.8 µM
c1ccc2c(c1)-c1ccccc1C2NC1=NCCO1	–	33.2 µM	–	> 100 µM	–	91.9 µM	–	–	–	27 µM	–	41 µM	–	> 100 µM	–	56 µM	–	29.1 µM	24 µM
C/C(CCN(C)C)=N\OC(=O)c1ccccc1	–	> 100 µM	–	–	–	> 100 µM	–	> 100 µM	–	> 100 µM	–	> 100 µM	–	> 100 µM	–	–	–	> 100 µM	–
N=c1oc2cc(O)ccc2cc1C(=O)Nc1cccc2ccccc12	–	> 36.2 µM	–	20 µM	–	> 100 µM	–	41.2 µM	–	15.5 µM	–	34.6 µM	–	18.7 µM	–	10.1 µM	–	15.8 µM	–
O=C1OC(c2ccccc2Br)=N/C1=C/c1ccccc1	–	34 µM	–	> 100 µM	–	> 100 µM	–	> 100 µM	–	45.5 µM	–	–	–	–	–	89.8 µM	–	> 100 µM	49.4 µM
O[C@@]12Cc3c([nH]c4ccccc34)[C@@H]3Oc4c(-c5ccccc5)ccc5c4[C@@]31CCN(CC1CC1)[C@@H]2C5	–	3.35 µM	–	–	–	> 100 µM	–	3.45 µM	–	3.99 µM	–	3.28 µM	–	–	–	–	–	3.25 µM	3.23 µM
CN1CCc2c(sc3ncn(Nc4ccc(F)cc4)c(=N)c23)C1	–	> 100 µM	–	> 100 µM	–	> 100 µM	–	> 100 µM	–	> 100 µM	–	–	–	> 100 µM	–	> 100 µM	–	> 100 µM	> 100 µM
COc1ccc(/C=C/C(=O)CCN2CCN(CCC(=O)/C=C/c3ccc(OC)cc3)CC2)cc1	–	23 µM	–	71.1 µM	–	–	–	29.1 µM	–	35.9 µM	–	13.4 µM	–	17.2 µM	–	25.2 µM	–	32 µM	10.5 µM
CN(/N=C/C=N/N(C)C1=NCCN1)C1=NCCN1	–	> 100 µM	–	> 100 µM	–	–	–	> 100 µM	–	> 100 µM	–	> 100 µM	–	–	–	> 100 µM	–	> 100 µM	> 100 µM
COC(=O)c1c2c(cc3c1CC1(C3)Cc3cc4c(c(C(=O)OC)c3C1)CCC4)CCC2	–	> 100 µM	–	–	–	> 100 µM	–	> 100 µM	–	> 100 µM	–	> 100 µM	–	> 100 µM	–	> 100 µM	–	> 100 µM	> 100 µM
CCCCCCCCCCCCc1ccsc1-c1ccc(-c2ccc(-c3sccc3CCCCCCCCCCCC)s2)s1	–	> 100 µM	–	> 100 µM	–	> 100 µM	–	> 100 µM	–	–	–	> 100 µM	–	> 100 µM	–	> 100 µM	–	> 100 µM	> 100 µM
CC(C)=CCc1cc(/C=C/C(=O)O)cc(CC=C(C)C)c1O	–	> 100 µM	–	> 100 µM	–	> 100 µM	–	> 100 µM	–	–	–	> 100 µM	–	–	–	> 100 µM	–	> 100 µM	> 100 µM
C=C(C)COc1cc(NC(=S)OC(C)C)ccc1Cl	–	65.7 µM	–	31.1 µM	–	54.1 µM	–	31.8 µM	–	–	–	31.6 µM	–	–	–	29.5 µM	–	38.4 µM	31.5 µM
C[C@@H](c1ccccc1)N1CO[C@@]2(C#Cc3ccc4c(c3)OCO4)CCC[C@@H]12	–	34.7 µM	–	29.7 µM	–	38 µM	–	38.2 µM	–	–	–	31.4 µM	–	24.4 µM	–	28.2 µM	–	25.8 µM	37.7 µM
O=C1CN(c2ccccc2)C(=O)CN1NCNN1CC(=O)N(c2ccccc2)CC1=O	–	> 100 µM	–	> 100 µM	–	> 100 µM	–	> 100 µM	–	> 100 µM	–	> 100 µM	–	> 100 µM	–	–	–	> 100 µM	> 100 µM
